# According to patent US20110190267A1, “PRODRUGS OF OPIOIDS AND USES THEREOF” (priority 2010, published 2011):
# “And” between values parts separate entries of the source, which are not always exact repeats. Equal entries are not always repeated. Where two headings read alike, the source gives them in different places. Marks after values point to notes of the source that are not given here.
# Columns and labels:
# [1] = Pharmacokinetics of levorphanol or levorphanol PABA carbamate, dogs (Example 46); format: in vivo, Beagle dogs; settings: for AUC / Cmax / Tmax / half-life / T>50%Cmax: levorphanol in plasma after oral levorphanol, 5 mg free base equivalents/kg, female beagle dog; for AUC: AUClast; for half-life / T>50%Cmax: maximum of 30% extrapolation allowed; for half-life: read-out: t½ (converted)
# Procedure: (§1) Blood samples were taken at various times after administration, and submitted to analysis for the parent drug and prodrug using a validated LC-MS-MS assay. Pharmacokinetic parameters derived from the plasma analytical data were determined using Win Nonlin.
# [2] = Pharmacokinetics of levorphanol or levorphanol PABA carbamate, monkeys (Example 45); format: in vivo; settings: levorphanol in plasma after oral levorphanol, 5 mg free base equivalent/kg; for half-life: read-out: t½ (converted)
# Procedure: as §1
# [3] = Pharmacokinetics of racemic tapentadol or tapentadol PABA carbamate, monkeys (Example 39)
# [4] = Pharmacokinetics of dextrorphan or dextrorphan PABA carbamate, monkeys (Example 47); format: in vivo, cynomolgus monkeys; settings: for half-life: read-out: t½ (converted)
# Procedure: as §1
# [5] = Pharmacokinetics of dextrorphan or dextrorphan PABA carbamate, dogs (Example 48); format: in vivo, beagle dogs
# Procedure: Data were normalized to 1 mg/kg
# [6] = Pharmacokinetics of R,R tapentadol or R,R tapentadol PABA carbamate, monkeys (Example 40); format: in vivo, cynomolgus monkeys; settings: R,R tapentadol in plasma after oral R,R tapentadol, 3 mg free base equivalents/kg
# Procedure: as §1
# [7] = Pharmacokinetics of R,R tapentadol or R,R tapentadol PABA carbamate, dogs (Example 41); format: in vivo, Beagle dogs; settings: for AUC / Cmax / T>50%Cmax / Tmax / t½: RR-tapentadol in plasma after oral RR-tapentadol, 1 mg free base equivalents/kg, female beagle dogs
# Procedure: as §1
# in vivo = settings: male, rat, plasma, po, 10 mg naloxone free base equivalents/kg, naloxone in plasma after oral naloxone, 10 mg free base equivalents/kg, male rats; for half-life: t½
# Procedure: Blood samples were taken at various times after administration and submitted to analysis for the parent drug and pro-drug using a validated LC-MS-MS assay. Pharmacokinetic parameters derived from the plasma analytical data were determined using Win Nonlin.
# [8] = male cynomolgus monkeys, single animal
# [9] = male, cynomolgus monkey, plasma, po, 5 mg levorphanol free base equivalents/kg, Mean
# [10] = male, cynomolgus monkey, plasma, po, 5 mg levorphanol free base equivalents/kg, single animal
# [11] = dextrorphan in plasma after oral dextrorphan, 5 mg free base equivalents/kg, male cynomolgus monkeys, single animal
# [12] = dextrorphan in plasma after oral dextrorphan, 5 mg free base equivalents/kg, female dogs, single animal
# [13] = naloxone in plasma after oral naloxone, 10 mg free base equivalents/kg, male rats, single animal
smiles,measurement,setting,value
CN1CC[C@]23CCCC[C@H]2[C@H]1Cc1ccc(O)cc13 [levorphanol],T>50%Cmax of levorphanol,"[1]; dogs, oral 5 mg levorphanol free base equivalents/kg",1.4 h
same,AUC,"[1]; female, beagle, dog, plasma, po, 5 mg levorphanol free base equivalents/kg, Mean, read-out: AUC",10 ng·h/mL
same,Cmax,"[1]; female, beagle, dog, plasma, po, 5 mg levorphanol free base equivalents/kg, Mean, read-out: Cmax",3.8 ng/mL
same,Tmax,"[1]; female, beagle, dog, plasma, po, 5 mg levorphanol free base equivalents/kg, Mean, read-out: Tmax",0.6 h
same,half-life,"[1]; female, beagle, dog, plasma, po, 5 mg levorphanol free base equivalents/kg, Mean",1.2 h
same,half-life,"[1]; female, beagle, dog, plasma, po, 5 mg levorphanol free base equivalents/kg, single animal",0.8 h
same,Tmax,"[1]; female, beagle, dog, plasma, po, 5 mg levorphanol free base equivalents/kg, single animal, read-out: Tmax",1 h
same,AUC,[1]; single animal,5.8 ng·h/mL and 19 ng·h/mL and 16 ng·h/mL and 6.6 ng·h/mL and 2.8 ng·h/mL
same,T>50%Cmax,[1]; Mean,1.4 h
same,T>50%Cmax,[1]; single animal,1.5 h and 1.3 h
same,Cmax,[1]; single animal,4.2 ng/mL and 3.2 ng/mL and 5.3 ng/mL and 4.3 ng/mL and 1.9 ng/mL
same,Tmax,[1]; single animal,0.5 h
same,AUC,[2]; [8],28 ng·h/mL and 34 ng·h/mL and 27 ng·h/mL
same,Cmax,[2]; [8],6.6 ng/mL and 8.2 ng/mL and 7.6 ng/mL
same,t½,[2]; [8],2.1 h and 1.6 h
same,Tmax,[2]; [9],1.5 h
same,AUC,"[2]; male, cynomolgus monkey, plasma, po, 5 mg levorphanol free base equivalents/kg, Mean, read-out: AUC",28 ng·h/mL
same,Cmax,"[2]; male, cynomolgus monkey, plasma, po, 5 mg levorphanol free base equivalents/kg, Mean, read-out: Cmax",7.1 ng/mL
same,half-life,[2]; [9],1.7 h
same,Tmax,[2]; [10],2 h
same,AUC,"[2]; male, cynomolgus monkey, plasma, po, 5 mg levorphanol free base equivalents/kg, single animal, read-out: AUC",22 ng·h/mL
same,Cmax,"[2]; male, cynomolgus monkey, plasma, po, 5 mg levorphanol free base equivalents/kg, single animal, read-out: Cmax",6.2 ng/mL
same,half-life,[2]; [10],1.5 h
CC[C@@H](c1cccc(O)c1)[C@@H](C)CN(C)C [tapentadol],half-life,"[3]; cynomolgus monkey, plasma, po, 3 mg/kg",1.2 h
same,AUC,"[3]; male, cynomolgus monkey, plasma, po, 1 mg free base equivalents/kg",5.4 ng·h/mL
same,Cmax,"[3]; male, cynomolgus monkey, plasma, po, 1 mg free base equivalents/kg, Cmax * (estimated), racemic tapentadol (all four isomers), oral tapentadol scaled up from 1 to 3 mg free base equivalents/kg, monkeys, n = 5, LLOQ taken as Cmax",2.4 ng/mL
same,AUC,"[3]; male, cynomolgus monkey, plasma, po, 1 mg/kg tapentadol free base equivalents/kg",< 5.4 ng·h/mL
same,"plasma concentrations of tapentadol, each isomer (LLOQ)","[3]; oral tapentadol 1 mg/kg, monkeys",< 0.4 ng/mL
same,Cmax * (estimated),"[3]; racemic tapentadol (all four isomers), oral tapentadol scaled up from 1 to 3 mg free base equivalents/kg, monkeys, n = 5, LLOQ taken as Cmax",<2.4 ng/mL
CN1CC[C@@]23CCCC[C@@H]2[C@@H]1Cc1ccc(O)cc13 [dextrorphan],T>50%Cmax,"[4]; dextrorphan in plasma after oral dextrorphan, 5 mg free base equivalents/kg, male cynomolgus monkeys, Mean",3.5 h
same,Cmax,[4]; [11],3.0 ng/mL and 3.5 ng/mL and 5.5 ng/mL
same,T>50%Cmax,[4]; [11],3.7 h and 3.5 h and 4.5 h and 2.5 h and 3.3 h
same,Tmax,[4]; [11],1.0 h
same,AUC,"[4]; dextrorphan in plasma after oral dextrorphan, 5 mg free base equivalents/kg, male cynomolgus monkeys, single animal (animal 12: extrapolation of AUC data 39%)",14* ng · h/mL and 19 ng · h/mL (2×) and 13 ng · h/mL
same,AUC,"[4]; male, cynomolgus monkey, plasma, po, 5 mg dextrorphan free base equivalents/kg, dextrorphan in plasma after oral dextrorphan, 5 mg free base equivalents/kg, male cynomolgus monkeys, Mean, read-out: AUC",17 ng·h/mL
same,Cmax,"[4]; male, cynomolgus monkey, plasma, po, 5 mg dextrorphan free base equivalents/kg, dextrorphan in plasma after oral dextrorphan, 5 mg free base equivalents/kg, male cynomolgus monkeys, Mean, read-out: Cmax",3.9 ng/mL
same,Tmax,"[4]; male, cynomolgus monkey, plasma, po, 5 mg dextrorphan free base equivalents/kg, dextrorphan in plasma after oral dextrorphan, 5 mg free base equivalents/kg, male cynomolgus monkeys, Mean, read-out: Tmax",1.6 h
same,half-life,"[4]; male, cynomolgus monkey, plasma, po, 5 mg dextrorphan free base equivalents/kg, dextrorphan in plasma after oral dextrorphan, 5 mg free base equivalents/kg, male cynomolgus monkeys, Mean",2.1 h
same,Cmax,"[4]; male, cynomolgus monkey, plasma, po, 5 mg dextrorphan free base equivalents/kg, dextrorphan in plasma after oral dextrorphan, 5 mg free base equivalents/kg, male cynomolgus monkeys, single animal, read-out: Cmax",4.3 ng/mL
same,Tmax,"[4]; male, cynomolgus monkey, plasma, po, 5 mg dextrorphan free base equivalents/kg, dextrorphan in plasma after oral dextrorphan, 5 mg free base equivalents/kg, male cynomolgus monkeys, single animal, read-out: Tmax",2 h
same,half-life,"[4]; male, cynomolgus monkey, plasma, po, 5 mg dextrorphan free base equivalents/kg, dextrorphan in plasma after oral dextrorphan, 5 mg free base equivalents/kg, male cynomolgus monkeys, single animal",2.3 h
same,AUC,"[4]; male, cynomolgus monkey, plasma, po, 5 mg dextrorphan free base equivalents/kg, read-out: AUC",20 ng·h/mL
same,T>50%Cmax,"[5]; dextrorphan in plasma after oral dextrorphan, 5 mg free base equivalents/kg, female dogs, Mean",2.4 h
same,AUC,[5]; [12],18.9 ng·h/mL and 13.4 ng·h/mL and 8.3 ng·h/mL and 10.7 ng·h/mL and 12.4 ng·h/mL
same,Cmax,[5]; [12],4.2 ng/mL and 2.1 ng/mL and 3.8 ng/mL and 2.7 ng/mL
same,T>50%Cmax,[5]; [12],2.9 h (2×) and 2.4 h and 2.2 h and 1.6 h
same,Tmax,[5]; [12],1.0 h
same,T>50% Cmax of dextrorphan,"[5]; dogs, oral",2.4 h
same,AUC,"[5]; female, beagle, dog, plasma, po, 5 mg dextrorphan free base equivalents/kg, dextrorphan in plasma after oral dextrorphan, 5 mg free base equivalents/kg, female dogs, Mean, read-out: AUC",12.7 ng·h/mL
same,Cmax,"[5]; female, beagle, dog, plasma, po, 5 mg dextrorphan free base equivalents/kg, dextrorphan in plasma after oral dextrorphan, 5 mg free base equivalents/kg, female dogs, Mean, read-out: Cmax",3.3 ng/mL
same,Tmax,"[5]; female, beagle, dog, plasma, po, 5 mg dextrorphan free base equivalents/kg, dextrorphan in plasma after oral dextrorphan, 5 mg free base equivalents/kg, female dogs, Mean, read-out: Tmax",0.6 h
same,Cmax,"[5]; female, beagle, dog, plasma, po, 5 mg dextrorphan free base equivalents/kg, dextrorphan in plasma after oral dextrorphan, 5 mg free base equivalents/kg, female dogs, single animal, read-out: Cmax",3.6 ng/mL
same,Tmax,"[5]; female, beagle, dog, plasma, po, 5 mg dextrorphan free base equivalents/kg, dextrorphan in plasma after oral dextrorphan, 5 mg free base equivalents/kg, female dogs, single animal, read-out: Tmax",0.5 h
same,half-life,"[5]; female, beagle, dog, plasma, po, 5 mg free base equivalents/kg, dextrorphan in plasma after oral dextrorphan, 5 mg free base equivalents/kg, female dogs, Mean, read-out: t½ (converted)",3.1 h
"CC[C@@H](c1cccc(O)c1)[C@@H](C)CN(C)C [R,R tapentadol]",AUC,[6]; Mean,7.6 ng·h/mL
same,Cmax,[6]; Mean,2.2 ng/mL
same,T>50%Cmax,[6]; Mean,2.8 h
same,Tmax,[6]; Mean,1.1 h
same,t½,[6]; Mean,1.6 h
same,AUC,[6]; single animal,10 ng·h/mL and 8.6 ng·h/mL and 7.7 ng·h/mL and 4.0 ng·h/mL
same,Cmax,[6]; single animal,2.9 ng/mL and 2.6 ng/mL and 2.1 ng/mL and 1.1 ng/mL
same,T>50%Cmax,[6]; single animal,2.8 h (2×) and 2.7 h and 2.9 h
same,Tmax,[6]; single animal,0.5 h and 1.0 h (2×) and 2.0 h
same,t½,[6]; single animal,1.5 h (2×) and 1.7 h and 1.6 h
same,AUC,[7]; Mean,4.16 ng·h/mL
same,Cmax,[7]; Mean,3.21 ng/mL
same,T>50%Cmax,[7]; Mean,0.7 h
same,Tmax,[7]; Mean,0.44 h
same,t½,[7]; Mean,0.6 h
same,AUC,[7]; single animal,1.74 ng·h/mL and 8.35 ng·h/mL and 2.38 ng·h/mL
same,Cmax,[7]; single animal,1.25 ng/mL and 8.48 ng/mL and 0.39 ng/mL and 2.71 ng/mL
same,T>50%Cmax,[7]; single animal,1.0 h and 0.6 h (2×)
same,Tmax,[7]; single animal,0.50 h (3×) and 0.25 h
same,t½,[7]; single animal,0.7 h and 0.6 h and 0.5 h
same,"T50% Cmax of R,R tapentadol","[7]; dogs, oral 1 mg R,R tapentadol free base equivalents/kg",0.7 h
C=CCN1CC[C@]23c4c5ccc(O)c4O[C@H]2C(=O)CC[C@@]3(O)[C@H]1C5 [naloxone],AUC,in vivo; Mean,22 ng·h/mL
same,AUC,in vivo; single animal,22 ng·h/mL
same,Cmax,in vivo; Mean,6.8 ng/mL
same,Cmax,in vivo; single animal,7.1 ng/mL
same,Tmax,in vivo; Mean,0.35 h
same,Tmax,in vivo; single animal,0.25 h
same,half-life,in vivo; Mean,3.9 h
same,half-life,in vivo; single animal,3.9 h
same,T>50%Cmax,"naloxone in plasma after oral naloxone, 10 mg free base equivalents/kg, male rats, Mean",2.1 h
same,Cmax,[13],6.3 ng/mL and 7.6 ng/mL and 8.1 ng/mL and 4.9 ng/mL
same,T>50%Cmax,[13],1.2 h and 1.5 h and 1.8 h and 1.3 h and 4.5 h
same,Tmax,[13],0.50 h
same,t½,[13],3.8 h
same,variability around bioavailability of naloxone,"rats, oral 10 mg/kg",over 10%
